The nature of data set [1]: Temperature of transition from lamellar to hexagonal structure (HII) of DEPE membranes, X-ray diffraction/scattering. The following applies: for TH, lamellar-hexagonal transition of DEPE: phospholipid:analog 20:1 mol:mol, Table 2, control 61. The protocol: The control value (in the absence of 2-hydroxyoleic) is 63° C. […] This important modification of the cell membrane has important consequences for molecular and cellular function. All the analogs of 2-hydroxyoleic tested that have therapeutic activity also induce effects on the membrane structure (Table 2).
Using this technique, we established that the structure of the membrane is altered by 2-hydroxyoleic acid and its analogs. The lowering of the temperature of transition from lamellar to hexagonal structure indicates an important effect on rearrangement of the lipid molecules in the membrane. This regulation of rearrangement forms the basis of the effect exerted by 2-hydroxyoleic acid and its analogs.

Data set [2] deals with systolic arterial pressure. Kind of data set: Blood pressure in humans. The format is in vivo. The following applies: 30 mg/kg, FIG. 9b. From the text: The days prior to treatment are shown with negative values. *P<0.05, **P<0.01.
Data set [3] concerns systolic arterial pressure. Kind of data set: Blood pressure in Sprague-Dowley rats. The following applies: for systolic arterial pressure after acute treatment, in words: Sprague-Dowley rats, FIG. 10. It counts as in vivo. The protocol:
These reductions were of an acute form (at 2 hours of treatment, 19±6 mmHg, P<0.01, n=6) and of a chronic form (1 week, 26±7 mmHg, P<0.001, n=6).
Lower doses of this molecule (1-10 mg/kg) produced similar effects, but less marked. *P<0.01.

The test system of a further data set is Gαi2 protein. Kind of data set: Cellular localization of fluorescein-labeled Gαi2 protein, confocal microscopy. It counts as cell-based. The following applies: primary astrocytes of rat brain, FIG. 2. The source says:
(§1) This is because these molecules have an influence on the interaction of G-proteins with membranes and therefore on their cellular localization, as is shown in the photographs from confocal microscopy (FIG. 2). The effect of hydroxyoleic acid and its analogs on the localization and activity of G-proteins is not due to a direct interaction on them.
(§2) In this way, inhibition of cell proliferation is achieved, as was confirmed by the appreciable and significant increases in the levels of the protein p21 and the decreases in the cell cycle proteins cdk2 and cyclins B and D3 (FIGS. 3A and B). Moreover, it has been observed that in cells in culture, 2-hydroxyoleic acid and its analogs induce significant increases in protein kinase C (increase of between 40% and 120%).
In control cells, the labeling indicates the presence of this protein throughout the cell, especially in the nucleus (arrow).

In data set [4] the test system is human lung cancer cells A549. Kind of data set: Cell cycle proteins (cdk2, cyclin B, cyclin D3, p21) in A549 cells. The format is cell-based.
Text: as §2
(§3) Similar effects were produced by all the analogs tested that comply with the general structural formula given earlier. […] This antiproliferative effect was also observed using other techniques and other cell types: in rat primary astrocytes, these fatty acids have an antiproliferative effect, which I studied by incorporating tritiated thymidine. Moreover, hydroxyoleic acid and its analogs are able to induce apoptosis or programmed cell death in human cancer cells. […] Using flow cytometry experiments, it was established that in the presence of 2-hydroxyoleic acid the number of live human leukemia cells (Jurkat) was only 10% of those that remained alive with Etoposide, a known antitumor agent.
Protein p21 inhibits the cell cycle, so it is an antiproliferative protein. […] The decrease in levels of this enzyme, or evidence of its degradation, indicate the start of apoptosis or programmed cell death. […]

Data set [5] relates to Jurkat cells of human leukemia. Kind of data set: Proliferation (cell density) of Jurkat tumor cells in culture. The format is cell-based. Conditions: FIG. 4B. From the text:
(§4) The presence of 2-hydroxyoleic acid and/or its analogs in the cells induces activation of the signal pathway associated with p53, which induces the start of apoptosis or stopping of the cell cycle in various types of tumor cells. With the aim of carrying out the first objective of the present invention, in vitro and in vivo models were used.

The test system of data set [6] is cerebral tumor metastases, formed from a lung adenocarcinoma. Kind of data set: Brain metastases of lung adenocarcinoma in a patient. The format is in vivo, human. The following applies: previous chemotherapy and radiotherapy without effect. The source says: The antitumor efficacy of 2-hydroxyoleic acid and its […] is shown in FIG. 8, in which we can see the disappearance of some cerebral tumor metastases, formed from a lung adenocarcinoma, after treatment with 2-hydroxyoleic acid.
Regulation of the Activity of G-Proteins Controls Blood Pressure.
The image on the left (8a) corresponds to the tumors before treatment and those on the right (8b, 8c and 8d) correspond to the tumors after treatment with 2-hydroxyoleic on various dates.

Data set [7] deals with human leukemia cells (Jurkat). Kind of data set: Degradation of poly-ADP ribose polymerase (PARP) in Jurkat cells. The format is cell-based. Conditions: Jurkat cells, 10, 100 and 1000 μM, FIG. 3C.
Text: as §3
Protein p21 inhibits the cell cycle, so it is an antiproliferative protein. […] The decrease in levels of this enzyme, or evidence of its degradation, indicate the start of apoptosis or programmed cell death. In these experiments Etoposide was used as the positive control, as this molecule is known to be an inducer of apoptosis and an antitumor agent.

The subject of a further data set is purified G-proteins. Kind of data set: Activity of purified G-proteins in the absence of membrane. The format is biochemical.
Text: as §1
FIG. 6: Hydroxyoleic acid and its analogs had no effect on pure G-proteins (in the absence of membrane).

A further data set relates to heart rate. Kind of data set: Heart rate during hypotensive treatment. The following applies: FIGS. 9a, 9b and 10. The format is in vivo. The protocol: The hypotensive effect produced by 2-hydroxyoleic acid and its analogs is that it induces a reduction in blood pressure of an acute form (which is evident from 2 hours of treatment) and chronic (which is maintained for days and weeks while the treatment is maintained). Aminoleic acid, for example, reduces blood pressure by 15 mmHg in chronic treatments lasting a week. These fatty acids regulate communication between receptor, G-protein and effector. The result is a modulation of the signals of cyclic AMP, phospholipase C and nitric oxide, which gives rise to a reduction in blood pressure. This effect is also connected with regulation of the membrane structure. […] An additional advantage of these compounds is that they control other cardiovascular risk factors: the serum lipid/lipoprotein profile and body weight (see below).

The nature of data set [8]: Body weight of rats in chronic treatment. It counts as in vivo. Conditions: seventh day, Sprague-Dowley rat aged 2-3 months. The source says: Rats treated with these molecules lost body weight during chronic treatments (from 5 to 17 days). In these experiments, rats treated with 2-hydroxyoleic acid or its analogs, in particular aminoleic acid, had free access to food and water, in the same way as the control group of treated rats (FIG. 11). In these conditions there was a progressive decrease in the rats' body weight starting from the first day of treatment, up to 17 grams on the seventh day of treatment (5% of the normal body weight of a Sprague-Dowley rat aged 2-3 months). […] Similar experiments carried out on adult mice, for periods of up to 28 days with 2-hydroxyoleic acid, show reductions in body weight from 15% to 25%, relative to control mice (treated with vehicle).
The animals (Sprague-Dowley rats) had free access to food and water at any time.

In data set [9] the test system is human lung cancer cells A549. Kind of data set: Proliferation (cell density) of A549 tumor cells in culture. It counts as cell-based. The following applies: FIG. 4A.
Text: as §4

Another data set concerns G-proteins. Kind of data set: Binding of [35S]GTPγS to membranes of NIH 3T3 cells transfected with the rat adrenoceptor α2A/D (activity of G-proteins). It counts as biochemical. From the text:
Hydroxyoleic acid and related compounds are capable of modulating the activity of G-proteins, measured by the binding of [^35S] GTPγS (FIG. 5).
The analogs of 2-hydroxyoleic produce an effect similar to that of 2-hydroxyoleic acid.
A general note: Binding of GTPγS marks nucleotide exchange on a G protein.

Data set [10] relates to human leukemia cells (Jurkat). Kind of data set: Flow cytometry, number of live Jurkat cells. The format is cell-based.
Text: as §3

Regarding `CCCCCCCC/C=C\CCCCCCC(O)C(=O)O` (stereo not drawn) [2-hydroxyoleic acid, cis-2-hydroxy-9-octadecenoic acid], the “TH, temperature of transition from lamellar to hexagonal structure” value in data set [1] (DEPE:2OHOA 10:1 mol:mol) was determined as 41 °C; in data set [1] (DEPE:2OHOA 20:1 mol:mol), 48 °C; in data set [1] (DEPE:2OHOA 40:1 mol:mol) it was 54 °C. Further, the “blood pressure in humans, in words” value in data set [2] is given as “significant, large decreases”. Moreover, in data set [3], the “systolic arterial pressure after acute treatment, in words” value (from here on “systolic arterial pressure”) was “significant decreases”. In addition, the “blood pressure at lower doses, in words” value in data set [3] (acute and chronic treatments from 1 mg/kg to 10 mg/kg) is given as “significant reductions”. In addition, the “reduction of blood pressure, chronic” value in data set [3] (rats, 1 week, 3 daily injections of 30 mg/kg) was determined as 26±7 mmHg. Besides, the “reduction of blood pressure, acute” value in [3] (rats, at 2 hours of treatment, 30 mg/kg) stood at 19±6 mmHg. Also, in the data set on Gαi2 protein, the “cellular localization of Gαi2 protein” value was “in membrane and cytosol, but not in the nucleus”. Moreover, the “cell cycle proteins cdk2, cyclin B and cyclin D3” value in [4] (FIG. 3A) is on record as “decrease”. Further, the p21 protein result in data set [4] (incubation for 24 and 48 hours, FIG. 3B) is listed as “large increases”. In addition, the “effect on proliferation of Jurkat cells” value in data set [5] was “induce stoppage of division and the death of tumor cells”. Further, the “effect on brain tumors (metastases) in a patient” value was “complete disappearance of the cancer” in data set [6] (FIG. 8); “one of the tumors disappeared more quickly and the other one more slowly” in data set [6] (FIG. 8, listed as 2-hydroxyoleic). Moreover, in data set [7], the “poly-ADP ribose polymerase (PARP) levels” value is recorded as “degradation”. The “influence on the activity of purified G-proteins” value in the data set with purified G-proteins (FIG. 6, listed as Hydroxyoleic acid) is on record as “no effect”; with purified G-proteins (FIG. 6, listed as hydroxyoleic) it was “did not have an influence”. The “effect on heart rate” value in the data set on heart rate is “without altering the heart rate”. For the same compound, the “decrease in body weight as share of normal body weight” value in data set [8] worked out at 5%. For the same compound, the “effect on proliferation of A549 cells” value in [9] was “induce stoppage of division and the death of tumor cells”. Moreover, the “function of the G-proteins ([35S]GTPγS binding), in words” value with G-proteins (FIG. 5) was “decrease in function of the G-proteins even greater than the anthracycline daunomycin”. Moreover, the “number of live Jurkat cells relative to those that remained alive with Etoposide” value in [10] is listed as 10%.
Take `CCCCCCCC/C=C\CCCCCCC(N)C(=O)O` (stereo not drawn) [Aminoleic acid, 2-amino-oleic (2-amino-cis-9-octadecenoic)acid]: the “TH, lamellar-hexagonal transition of DEPE” value (“TH … of DEPE” below) in [1] turned out to be 49 °C. In addition, the “reduction of blood pressure, chronic treatments lasting a week” value in [3] (species not printed at the place) worked out at 15 mmHg. Moreover, in [5], the “effect on proliferation of Jurkat cells” value was “induce stoppage of division and the death of tumor cells”. In addition, the “decrease in body weight as share of normal body weight” value in data set [8] is listed as 5%. Also, the “effect on proliferation of A549 cells” value in data set [9] is “induce stoppage of division and the death of tumor cells”.
For the compound `CCCCCCCC/C=C\CCCCCCC(C)C(=O)O` (stereo not drawn) [Methyloleic acid, 2-methyl-oleic (2-methyl-cis-9-octadecenoic)acid], the “TH … of DEPE” value in data set [1] came out at 50 °C. Also, the “systolic arterial pressure” value in [3] is recorded as “significant decreases”. Besides, in data set [5], the “effect on proliferation of Jurkat cells” value is “induce stoppage of division and the death of tumor cells”. The “effect on proliferation of A549 cells” value in [9] is “induce stoppage of division and the death of tumor cells”.
In the case of `CCCCCCCC/C=C\CCCCCCCCCCCCCC(=O)O` [Nervonic acid, nervonic (cis-15-tetracosenoic)acid], the “TH … of DEPE” value in [1] was 55 °C. Also, the “systolic arterial pressure” value in data set [3] was “significant decreases”. Moreover, the “effect on proliferation of Jurkat cells” value in data set [5] is “induce stoppage of division and the death of tumor cells”. In [9], the “effect on proliferation of A549 cells” value was “induce stoppage of division and the death of tumor cells”.
For the compound `CCCCCCCC/C=C\CCCCCCCC(=O)O` [Oleic acid, oleic (cis-9-octadecenoic)acid], the “TH … of DEPE” value in [1] was 45 °C. Also, the “systolic arterial pressure” value in data set [3] is recorded as “significant decreases”. Moreover, in data set [5], the “effect on proliferation of Jurkat cells” value was “induce stoppage of division and the death of tumor cells”. The “effect on brain tumors (metastases) in a patient” value in [6] (FIG. 8) is “complete disappearance of the cancer”. Moreover, the “effect on proliferation of A549 cells” value in data set [9] is “induce stoppage of division and the death of tumor cells”.
As to `CCCCCC/C=C\CCCCCCCCCC(=O)O` [cis-Vaccenic acid, cis-vaccenic (cis-11-octadecenoic)acid], in data set [1], the “TH … of DEPE” value came to 53 °C. For the same compound, the “systolic arterial pressure” value in [3] is “significant decreases”.
For `COc1cccc2c1C(=O)c1c(O)c3c(c(O)c1C2=O)C[C@@](O)(C(C)=O)C[C@@H]3O[C@H]1C[C@H](N)[C@H](O)[C@H](C)O1` [daunomycin, reference compound], the “influence on the activity of purified G-proteins” value with purified G-proteins (FIG. 6) is recorded as “did not have an influence”; in the data set on purified G-proteins (FIG. 6, listed as Daunomycin), “behavior similar to the control”. Further, in the data set on G-proteins (200 μM, membranes of NIH 3T3 cells), the “inhibition in the activity of G-proteins” value is on record as 46%.
On to `CCCCCC/C=C\CCCCCCCC(=O)O` [palmitoleic acid, palmitoleic (cis-9-hexadecenoic)acid], for which, in data set [3], the “systolic arterial pressure” value is listed as “significant decreases”. In addition, the “effect on proliferation of Jurkat cells” value in data set [5] is “induce stoppage of division and the death of tumor cells”. In [9], the “effect on proliferation of A549 cells” value is “induce stoppage of division and the death of tumor cells”.
